Test results reported in patent US12533417B2, “L-DOPA and/or DOPA decarboxylse inhibitors conjugated to sugar for the treatment of dopamine-responsive disorders” (B. G. Negev Technologies and Applications Ltd., at …, priority 2018, dated 2026).

What was measured:
[1] = Release of L-DOPA from L-DOPAM-1 and L-DOPAM-4 in human serum in vitro (Example 5); type: in vitro ADME; conditions: 37° C., L-DOPA concentration by LC-MS (FIG. 13)
Method: (§1) The stability of one molecule of L-DOPA and one Mannitol (L-DOPAM-1, M.W. 361) in serum was evaluated according to the following procedure: • 1. A solution of 2 mg L-DOPAM in lml of serum was prepared; • 2. A 200 μl aliquot was immediately withdrawn from that solution; • 3. 180 μl of TCA (trichloroacetic acid) 0.6N solution was added; • 4. The obtained mixture was centrifuged (5,000 rpm, 15 min., 40° C.); • 5. The supernatant was filtrated through 0.22 μm filter; • 6. The filtrate was diluted 20 times and injected into Liquid chromatography-mass spectrometry (LC-MS) (column: LUNA 3u C18 (2) 100A; 150×1.0 mm). The eluents were A=Acetonitrile, B=H2O+0.1% Acetic Acid. The following LC gradient was used: […]
The stability of one molecule of L-DOPA and one of mannitol (L-DOPAM-1), and of four molecules of L-DOPA and one of mannitol (L-DOPAM-4) in serum was evaluated by the method disclosed in Example 4. L-DOPAM-1 and L-DOPAM-4 were added into human serum and incubated at 37° C. Samples were taken at various times after the addition of the drugs to the serum and L-DOPA concentration was determined by LC-MS.

[2] = Stability of L-DOPAM in serum, LC-MS peak areas (Example 4); type: in vitro ADME, human; conditions: for Area L-DOPA (LC-MS peak area) / Area L-DOPAM (LC-MS peak area) / Area Mannitol (LC-MS peak area): L-DOPAM 2 mg/ml in serum, 36° C.
Method: as §1
The L-DOPAM solution in serum was stored at 36° C. Steps 2-6 were repeated after 2, 4, 23 and 46.5 hours.
The areas of the L-DOPAM, L-DOPA and Mannitol peaks were determined by extraction of only the ions of interest (FIGS. 3-7). The L-DOPA metabolite dopamine was not detected.
In order to semi-quantitatively determine the stability of L-DOPAM, the ratio of the peak areas of L-DOPA versus L-DOPAM and Mannitol versus L-DOPAM was calculated. An increase of the ratio of L-DOPA and Mannitol over time indicates the breakdown of L-DOPAM in serum.

[3] = L-DOPA concentration in human serum after adding DOPAM, HPLC-MS with internal standard; type: in vitro ADME
Method: HPLC-MS area under the curve were examined after addition of various L-DOPA concentrations to serum (FIG. 10). […] DOPAM was added to human serum in vitro, and L-DOPA concentrations in serum at various timepoints were determined by HPLC-MS and quantified using an internal standard. DOPAM released L-DOPA continuously over at least 24 hours (FIG. 12). The concentration of L-DOPA in serum increased in a linear fashion during the first 6 hours after adding DOPAM to the serum, after which L-DOPA concentration continued to increase through the final time point examined in this experiment (24 hours after DOPAM addition; FIG. 12).

[4] = Pharmacokinetic of L-DOPA following intravenous administration of L-DOPA and L-DOPAM-2 to mice; type: in vivo; conditions: for L-DOPA in the plasma: equivalent to 80 mg/kg L-DOPA, 4 and 8 hours after injection, no DOPA decarboxylase inhibitor
Method: In order to analyze the stability of DOPAM-2 in vivo, mice were injected intravenously with either L-DOPAM-2 or L-DOPA, where in either case, an equimolar dose of L-DOPA was administered (equivalent to 80 mg/kg L-DOPA). Mice were sacrificed 30, 60, 120, 240, and 480 minutes after the injection of the tested drug, blood was collected and plasma obtained by centrifugation. L-DOPA concentration was determined by LC-MS. 3 mice were tested per each time point, and each point on the graph represents mean±SEM.

## NC(Cc1ccc(O)c(O)c1)C(=O)OCC(OC(=O)C(N)Cc1ccc(O)c(O)c1)C(O)C(O)C(COC(=O)C(N)Cc1ccc(O)c(O)c1)OC(=O)C(N)Cc1ccc(O)c(O)c1 [L-DOPAM-4]
[1]
  course of levels after the increase: decreased slightly through the final time point examined after 72 hours
  time up to which levels increased: 24 h
  time up to which levels increased linearly: 5 h

## NC(Cc1ccc(O)c(O)c1)C(=O)OC(CO)C(O)C(O)C(O)CO [L-DOPAM-1]
[2]; 46 h after exposure of L-DOPAM to serum
  L-DOPAM detection in serum: still detected
[2]; time 0 h
  Area L-DOPA (LC-MS peak area): 1019288083
  Area L-DOPAM (LC-MS peak area): 4065363001
  Area Mannitol (LC-MS peak area): 60908307
[2]; time 2 h
  Area L-DOPA (LC-MS peak area): 2345301782
  Area L-DOPAM (LC-MS peak area): 3292402130
  Area Mannitol (LC-MS peak area): 65437168
[2]; time 4 h
  Area L-DOPA (LC-MS peak area): 2632498093
  Area L-DOPAM (LC-MS peak area): 2146859775
  Area Mannitol (LC-MS peak area): 97930402
[2]; time 23 h
  Area L-DOPA (LC-MS peak area): 1539342894
  Area L-DOPAM (LC-MS peak area): 498391022
  Area Mannitol (LC-MS peak area): 73274763
[2]; time 46.5 h
  Area L-DOPA (LC-MS peak area): 26308871
  Area L-DOPAM (LC-MS peak area): 460814075
  Area Mannitol (LC-MS peak area): 83932712
[2]; L-DOPAM in serum (FIG. 9)
  Mannitol levels: increased over time
[2]; L-DOPAM in serum, 0-46.5 h, LC-MS
  L-DOPA metabolite dopamine detected: not detected
[2]; L-DOPAM in serum, time 0 h
  Ratio L-DOPA/L-DOPAM (peak areas): 0.251
  Ratio Mannitol/L-DOPAM (peak areas): 0.015
[2]; L-DOPAM in serum, time 2 h
  Ratio L-DOPA/L-DOPAM (peak areas): 0.712
  Ratio Mannitol/L-DOPAM (peak areas): 0.020
[2]; L-DOPAM in serum, time 4 h
  Ratio L-DOPA/L-DOPAM (peak areas): 1.226
  Ratio Mannitol/L-DOPAM (peak areas): 0.046
[2]; L-DOPAM in serum, time 23 h
  Ratio L-DOPA/L-DOPAM (peak areas): 3.089
  Ratio Mannitol/L-DOPAM (peak areas): 0.147
[2]; L-DOPAM in serum, time 46.5 h
  Ratio L-DOPA/L-DOPAM (peak areas): 0.057
  Ratio Mannitol/L-DOPAM (peak areas): 0.182
[2]; L-DOPAM in serum, sharp decrease at the 46 h time point (FIG. 8)
  time up to which L-DOPA levels increased: 23 h
[1]
  course of levels after the increase: gradual decrease at 24 and 48 hours
  time up to which levels increased: 8 h
[3]; DOPAM added to human serum in vitro, 37° C. (FIG. 12)
  time over which L-DOPA was released continuously: at least 24 hours
[3]; after adding DOPAM to human serum (FIG. 12)
  period of linear increase of L-DOPA concentration in serum: 6 h
[3]
  time L-DOPA present in serum: at least 24 hours

## NC(Cc1ccc(O)c(O)c1)C(=O)OCC(OC(=O)C(N)Cc1ccc(O)c(O)c1)C(O)C(O)C(O)CO (centres unmarked) [DOPAM-2]
[4]
  L-DOPA in the plasma: significant levels of L-DOPA
[4]; equivalent to 80 mg/kg L-DOPA, 60, 120, 240, and 480 minutes after injection
  plasma concentrations of L-DOPA compared with mice injected with L-DOPA: higher

## N[C@@H](Cc1ccc(O)c(O)c1)C(=O)O [L-DOPA]
[4]
  L-DOPA in the plasma: no L-DOPA was detected
[3]
  time L-DOPA present in serum: about 2 hours
